Reference: ChEMBL document CHEMBL1201862, “PubChem BioAssay data set” (2004)
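1) Cells in 96-well plates. 2) Compound, 48 h, 5 concentrations. 3) Linear interpolation between surrounding doses. 4) Unreached endpoint = highest concentration. GI50 = concentration required for 50% inhibition of growth.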 Active and inactive are the calls of the source. Cut-off read from the data, not from the text of the source: active = GI50 up to about 1.1 µM and inactive = higher.

How the values were obtained:
Test in all cases: NCI tumour cell line growth inhibition, 48 h
HCC 2998 = test system: HCC 2998
HL-60 = test system: HL-60
SN12C = test system: SN12C
UACC-62 = test system: UACC-62
OVCAR-5 = test system: OVCAR-5
MCF7 = test system: MCF7
T47D = test system: T47D
EKVX = test system: EKVX
OVCAR-4 = test system: OVCAR-4
A498 = test system: A498
NCI-H23 = test system: NCI-H23
COLO 205 = test system: COLO 205
TK-10 = test system: TK-10
IGROV-1 = test system: IGROV-1
DU-145 = test system: DU-145
SK-MEL-28 = test system: SK-MEL-28
SF-268 = test system: SF-268
KM12 = test system: KM12
A549 = test system: A549
HCT-15 = test system: HCT-15

| Structure (SMILES) | GI50 (HCC 2998) | GI50 (HL-60) | GI50 (SN12C) | GI50 (UACC-62) | GI50 (OVCAR-5) | GI50 (MCF7) | GI50 (T47D) | GI50 (EKVX) | GI50 (OVCAR-4) | GI50 (A498) | GI50 (NCI-H23) | GI50 (COLO 205) | GI50 (TK-10) | GI50 (IGROV-1) | GI50 (DU-145) | GI50 (SK-MEL-28) | GI50 (SF-268) | GI50 (KM12) | GI50 (A549) | GI50 (HCT-15) |
| --- | --- | --- | --- | --- | --- | --- | --- | --- | --- | --- | --- | --- | --- | --- | --- | --- | --- | --- | --- | --- |
| Oc1nc(-c2ccc3ccccc3c2)nc2ccccc12 | 62.5 µM (inactive) | > 100 µM (inactive) | 54.1 µM (inactive) | > 100 µM (inactive) | 35.2 µM (inactive) | 64.4 µM (inactive) | 64 µM (inactive) | 43.5 µM (inactive) | 3.81 µM (inactive) | 32.9 µM (inactive) | 58.5 µM (inactive) | > 100 µM (inactive) | 0.771 µM (active) | 19.8 µM (inactive) | > 100 µM (inactive) | > 100 µM (inactive) | 26.3 µM (inactive) | > 100 µM (inactive) | 26.9 µM (inactive) | > 100 µM |
| O=[N+]([O-])c1ccc(Sc2c3ccccc3nc3ccccc23)cn1 | 45.6 µM (inactive) | 10.8 µM (inactive) | 18.7 µM (inactive) | 18.7 µM (inactive) | > 62.4 µM (inactive) | 4.48 µM (inactive) | 4.92 µM (inactive) | > 57.4 µM (inactive) | 21.2 µM (inactive) | > 100 µM (inactive) | 15.9 µM (inactive) | 3.36 µM (inactive) | 10.1 µM (inactive) | 32.4 µM (inactive) | 13.5 µM (inactive) | 24.7 µM (inactive) | 20.8 µM (inactive) | 33.1 µM (inactive) | > 100 µM (inactive) | 9.55 µM |
| OC1(c2ccccc2)CCCCCCCCC(O)(c2ccccc2)CCCCCCCC1 (stereo not given) | > 100 µM (inactive) | 59.2 µM (inactive) | > 100 µM (inactive) | > 100 µM (inactive) | > 100 µM (inactive) | > 100 µM (inactive) | > 100 µM (inactive) | > 100 µM (inactive) | > 100 µM (inactive) | > 100 µM (inactive) | > 100 µM (inactive) | > 100 µM (inactive) | > 100 µM (inactive) | > 100 µM (inactive) | > 100 µM (inactive) | > 100 µM (inactive) | > 100 µM (inactive) | > 100 µM (inactive) | > 100 µM (inactive) | > 100 µM |
| Cc1nc2ccccc2n1CCc1nc2ccccc2[nH]1 | > 100 µM (inactive) | > 100 µM (inactive) | > 100 µM (inactive) | > 100 µM (inactive) | > 100 µM (inactive) | > 100 µM (inactive) | > 100 µM (inactive) | > 100 µM (inactive) | > 100 µM (inactive) | > 100 µM (inactive) | > 100 µM (inactive) | > 100 µM (inactive) | > 100 µM (inactive) | > 100 µM (inactive) | > 100 µM (inactive) | > 100 µM (inactive) | > 100 µM (inactive) | > 100 µM (inactive) | > 100 µM (inactive) | > 100 µM |
| C/C(=C\[Si](C)(C)c1ccco1)C(C)(O)[C@H](C)O (stereo not given in full) | 34.8 µM (inactive) | 26.9 µM (inactive) | 32.7 µM (inactive) | > 100 µM (inactive) | > 100 µM (inactive) | 32.9 µM (inactive) | 16.4 µM (inactive) | 42.6 µM (inactive) | 2.9 µM (inactive) | 76 µM (inactive) | 30.2 µM (inactive) | 36.5 µM (inactive) | 97.3 µM (inactive) | > 100 µM (inactive) | 38.4 µM (inactive) | > 100 µM (inactive) | 90.2 µM (inactive) | 40.6 µM (inactive) | 48.2 µM (inactive) | 31.6 µM |
